Here are results for 5 compounds from patent publication US7772197B2, “1,3,5-triazines for treatment of viral diseases” (1,3,5-Triazines for Treatment of Viral Diseases, priority 2002, dated 2010).

Where two headings read alike, the source gives them in different places.

The subject of data set [1] is Measles virus (MV) Nagahata strain. Description: Treatment of measles virus-infected CV-1 cells. The data set is classed as cell-based. To be noted: Measles morbillivirus. How it is done:
MV Nagahata strain was used for drug testing. Compared to some laboratory strains, this virus strain replicates lytically in primary human embryonic lung cells and causes extensive cytopathic effect during acute infection. The virus stock was prepared by growing the virus on CV-1 cells at a MOI of 0.01. The titer of the virus stock was determined by plaque formation assay after series dilution.
Virus susceptible cells (CV-1 or BT cells) were seeded in 96-well plates at 2×10^4 cells/well. The virus was inoculated onto the cell monolayers at a MOI of 0.001˜0.002 to keep 30 plaque forming units (pfu) in each well. The inoculum was maintained in 37° C. for about one hour and the supernatant was discarded. Fresh media containing appropriate drug concentration was added in each well. Untreated control was run in parallel. Each drug was tested in triplicate. Three days after infection, cytopathic effect (CPE) was examined in the untreated control wells. […] The plates went through one “freeze-thaw” cycle to release intracellular virus. The virus stock was saved for next round of passage. The virus titer was determined as described above. Virus at a titer of 10^5˜10^6 pfu/ml was produced by this method.

Data set [2] deals with bovine viral diarrhea virus (BVDV) Singer strain. Description: Treatment of BVDV-infected BT cells. The data set is classed as cell-based. The settings on record: Bovine viral diarrhea virus isolates and strains. As for the experimental part:
The BVDV strain used for drug testing was the Singer strain. This virus also causes a cytopathic effect that is measurable and allows estimation of the level of infection. The visible cytopathology can be used as an endpoint for titrating the virus by 50% tissue culture infectious dose (TCID50). The BVDV was propagated in bovine turbinate (BT cells). The virus TCID50 was determined by counting the cytopathic effect at the endpoint dilution. Briefly, confluent BT cells in 96-well plates were infected with the virus at 8 independent serial 10-fold dilutions. All the plates were incubated for five days at 37° C. in 5% CO2. Each well was scored as positive or negative appearance of visible cytopathic effect. The titers were calculated by the method of Reed and Muench, Am. J. Hyg. 27:493-497 (1938), and the mean titer and standard deviation for each of the 3 replicates for each drug concentration and the positive and negative control were calculated.
Virus susceptible cells (CV-1 or BT cells) were seeded in 96-well plates at 2×10^4 cells/well. The virus was inoculated onto the cell monolayers at a MOI of 0.001˜0.002 to keep 30 plaque forming units (pfu) in each well. The inoculum was maintained in 37° C. for about one hour and the supernatant was discarded. Fresh media containing appropriate drug concentration was added in each well. […] The virus titer was determined as described above. […]

Data set [3] relates to HIV-1 RTMC, with 67N, 70R, 215F and 219Q mutations. Description: Sensitivity of NRTI-resistant HIV strain RTMC, MT-2 cells. The settings on record: Human immunodeficiency virus 1, MT2. The data set is classed as cell-based. As for the experimental part: (§1) 0.1 ml of a 3×10^5 cells/ml MT-2 cell suspension were seeded in 96-well plates at 3×10^4 cells/well. The compounds to be assayed were diluted in a separate 96-well at ten times (10×) the concentration needed for the screen. 22 μl of the 10× compounds was then added to the wells in triplicate except for six control wells, containing uninfected MT-2 cells alone (3 wells) and untreated HIV-infected MT-2 cells (3 wells). This was followed by the addition of HIV-1 at an MOI of 0.01, except for the three wells serving as the uninfected control. 0.1 ml of cRPMI was added to the uninfected well instead of virus. After the addition of virus, the 96-well plate was centrifuged at 1,200×g for two hours to enhance the adsorption of the virus by the MT-2 cells (see, e.g., O'Doherty, J. Virol. 74:10074-10080 (2000)). After the centrifugation step, the 96-well plate was then incubated in a 37° C. incubator containing 5% CO2 for three days. At the end of this time period the virus and cells were mixed by gentle pipetting followed by a 1 minute spin at 600×g to pellet the cells. The supernatant of each well was then serially diluted 1,000-fold into new 96-well plates to serve as inoculum for the next passage and assayed by ELISA for the amount of p24 produced. The next passage was performed as described above, except that the virus used to infect the cells was derived from the 1,000-fold dilution plate.
(§2) To determine if there is resistance of HIV NRTI resistant strains to mutagenic nucleoside analogues, NRTI resistant strains were grown in the presence of 5-aza-dC to determine whether the EC50 for 5-aza-dC is different from the WT strain (HIV-1 LAI). […] Growth of HIV NRTI resistant strains in the presence of the appropriate concentration of NRTI was used as a positive control.
(§3) Three HIV NRTI resistant strains (HIV-1 LAI-M184V, HIV-1 RTMDR1, with 74V, 41L, 106A and 215Y mutations, and HIV-1 RTMC, with 67N, 70R, 215F and 219Q mutations) were used to test the effectiveness of 5-aza-dC. […] Mutations include: M41L, E44D, A62V, K65R, D67N, T69DN, T69S_SS, K70R, L74V, V75I, F77L, Y115F, F116Y, V118I, Q151M, M184V, L210W, T215F and K219QE.
(§4) The effectiveness of DHAdC was tested against wild-type HIV strains and NRTI resistant HIV strains as described in Example 2. The following strains were tested: HIV-1 LAI, wild-type; HIV-I LAI-M184V-M184V mutation with resistance to lamivudine (3TC); HIV-1 RTMDR1-74V, 41L, 106A and 215Y mutations with resistance to zidovudine, didanosine, nevirapine and other non-nucleoside reverse transcriptase inhibitors; and HIV-1 RTMC-67N, 70R, 215F and 219Q with resistance to zidovudine.

The test system of a further data set is HIV-1 LAI. Description: Treatment of HIV-1-infected MT-2 cells with nucleoside analogues, p24 ELISA. To be noted: for EC50: Human immunodeficiency virus 1, MT2, wild-type HIV strain LAI, MT-2 cells. The format is cell-based. As for the experimental part: The strains of HIV-1 used for primary drug screening are HIV-1 LAI or the appropriate strain of NRTI resistant HIV for studies of cross-resistance. Virus was propagated on MT-2 cells at an multiplicity of infection (MOI) of 0.01 to generate virus stocks. Briefly, the MT-2 cells were suspended in RPMI 1640 media supplemented with 10% fetal bovine serum, streptomycin and penicillin (cRPMI) and grown in a 37° C. incubator containing 5% CO2. Serial dilution of the virus and infection of MT-2 cells were followed by an ELISA detecting the capsid protein of HIV-1 (p24) and used to determine the titer of the virus stocks (50% tissue culture infectious dose (TCID50)). The ELISA was performed according to the manufacturer's instructions. The MT-2 cells are also used for visualizing the cytopathic effects of HIV-1 growth (e.g. syncytia formation).
as §1, with “plate. To generate an EC50 value, half-log concentrations of mutagenic nucleoside or nucleotide analogue capable of eradicating virus in a single passage are tested as above to generate a dose-response curve.” for “plate.”

The test system of data set [4] is HIV-1 RTMDR1, with 74V, 41L, 106A and 215Y mutations. Description: Sensitivity of NRTI-resistant HIV strain RTMDR1, MT-2 cells. The data set is classed as cell-based. To be noted: Human immunodeficiency virus 1, MT2. As for the experimental part:
as §1, §2
Three HIV NRTI resistant strains (HIV-1 LAI-M184V, HIV-1 RTMDR1, with 74V, 41L, 106A and 215Y mutations, and HIV-1 RTMC, with 67N, 70R, 215F and 219Q mutations) were used to test the effectiveness of 5-aza-dC. […]

The subject of a further data set is HIV-1 LAI-M184V. Description: Sensitivity of NRTI-resistant HIV strain M184V, MT-2 cells. The data set is classed as cell-based. The settings on record: Human immunodeficiency virus 1, MT2. As for the experimental part: as §1, §2, §3, §4
Data set [5] is described as follows: Cytotoxicity on MT-2 cells (MTT). The format is cell-based. The settings on record: human. As for the experimental part: For each compound, cytotoxicity was evaluated on MT-2 cells. MT-2 cells were seeded at 3×10^4 cells/well in 96-well plates. […] After 5 days growth in a 37° C. incubator containing 5% CO2, MTT was added to a final concentration of 0.5 mg/ml and then incubated for four hours at 37° C. 10% SDS in 0.02 N HCl was added to lyse the cells overnight at 37° C. The plates were read on a Tecan Genius microplate reader at wavelengths of 570 nm/650 nm. The dose response curve was graphed by comparing the treated cells with the untreated control and the IC50 was determined for each compound.

For data set [6] the following is noted: cited from earlier work.
The next data set concerns HIV-1 RT proviral DNA. Description: Frequency of mutations to the viral genome induced by 5-aza-dC (sequencing of proviral clones). The format is cell-based. To be noted: 30 μM. How it is done:
The viral genomic DNA from cells treated with the deoxyribonucleoside analog 5-aza-dC (30 μM) was purified using a Qiagen DNeasy® Kit. 1 μg of genomic DNA was used to amplify a 1 kb region of the HIV-1 RT proviral DNA by PCR. The PCR product was then cloned into a TOPO® cloning vector. A Millipore Miniprep Kit was used to purify plasmid containing proviral inserts. About 45 positive clones were sequenced in both directions by a Beckman Coulter CEQ 8000. The sequencing results were analyzed and assembled using the DNASTAR Stagman program. Each mutated base was counted and the mutation rate was calculated over the total number of sequenced nucleotides. Sixty-one mutations were found in 26,187 bases sequenced in the 5-aza-dC treated cells. Only one mutation in the drug-free control could be confirmed by sequencing in both directions and thus, the mutation rate in the control may be overestimated. Thus, sequencing of a fragment of the nucleic acid encoding HIV reverse transcriptase has confirmed that 5-aza-dC is mutagenic to the viral genome.

A further data set relates to HIV. Description: HIV infected SCID-Hu mice. To be noted: 30 mg/kg/day. The format is in vivo. As for the experimental part: After completion of this toxicology experiment, SN1212 was tested in HIV infected SCID-Hu mice. […] The discordance between viral infectivity and conventional surrogate markers of viral load, such as p24 or HIV RNA, is not surprising, as it has also been observed in vitro, and reflects the increased proportion of non-infectious viral particles in the presence of SN1212. It is also interesting to note that, of the treated groups, the immunologic profile of the SN1212 groups most closely resemble that of the uninfected group. This is compatible with the finding that infection with less “fit” viruses provides a relative clinical benefit by preserving cellular immunity.

For the compound `Nc1ncn([C@@H]2O[C@H](CO)[C@@H](O)[C@H]2O)c(=O)n1` [Compound 5-aza-C, 5-Azacytidine], the EC50 in data set [1] turned out to be 15 µM; in [2] it was 10 µM.

`Cc1cn([C@H]2C[C@H](N=[N+]=[N-])[C@@H](CO)O2)c(=O)[nH]c1=O` [AZT, zidovudine]: the EC50 in data set [3] is 0.3 µM; in the data set with HIV-1 LAI it was 0.01 µM; in data set [4] it was 0.06 µM; in the data set on HIV-1 LAI-M184V, 0.01 µM.

In the data set with HIV-1 LAI, `CN1CN([C@H]2C[C@H](O)[C@@H](CO)O2)C(=O)N=C1N` [MeDHAdC, 5-methyl-5,6-dihydro-5-azadeoxycytidine] had a concentration for a half-maximal effect (EC50) of 10 µM.

Turning to `Nc1ncn([C@H]2C[C@H](O)[C@@H](CO)O2)c(=O)n1` [Compound 5-aza-dC, 2′-deoxy-5-azacytidine], the EC50 in data set [3] was determined as 0.005 µM. Further, the response in the data set on HIV-1 LAI was half-maximal at 0.003 µM (EC50). Also, in the data set with HIV-1 LAI (viral passage in MT-2 cells), the “eradication of HIV” value was “capable of eradicating HIV in a single passage”. Moreover, the IC50 at 5 days in [5] was over 10 µM. The compound further returned an EC50 in data set [4] of 0.01 µM. Also, a half-maximal effect in the data set with HIV-1 LAI-M184V (EC50) was put at 0.01 µM. Besides, in data set [6] (pH 7.0, 25° C.), the “time to 10% degradation” value was 5 h. Besides, in [6] (pH 7.0, 50° C.), the “time to 10% degradation” value is 0.5 h. Moreover, the mutation rate % in the data set on HIV-1 RT proviral DNA (1 kb region of HIV-1 RT proviral DNA) was determined as 0.223%. The MUTATIONS/NUCLEOTIDE in the data set with HIV-1 RT proviral DNA (1 kb region of HIV-1 RT proviral DNA, 26,187 nucleotides sequenced) was 61/. For the same compound, in the data set with HIV-1 RT proviral DNA (number of mutations), the “AΠC CΠA mutations” value was found to be 0, the “AΠT TΠA mutations” value was found to be 8, the “CΠG GΠC mutations” value is listed as 13 and the “GΠA AΠG mutations” value is recorded as 24. For the same compound, in the data set on HIV-1 RT proviral DNA (number of mutations), the “GΠT TΠG mutations” value turned out to be 10 and the “TΠC CΠT mutations” value was found to be 6.

Take `Nc1ccn([C@@H]2CS[C@H](CO)O2)c(=O)n1` [Compound 3TC, lamivudine, reference compound]: the EC50 in data set [3] is 0.33 µM. Further, the response in the data set with HIV-1 LAI was half-maximal at 0.045 µM (EC50). Also, in the data set on HIV, the “CD4+” value stood at 6.9%, the “CD4+ CD8+” value came out at 77% and the “CD8+” value amounted to 4.2%. For the same compound, in the data set on HIV (** p < 0.05), the “HIV-1 RNA” value is given as 2.0** log copies/10^6 cells, the Viral liter is on record as 0** viruses/10^6 cells and the p24 is reported as 0** pg/10^6 cells. The compound also returned a concentration giving a half-maximal response (EC50) with HIV-1 LAI-M184V of over 32 µM.
